One series relates to splenic lymphocytes. Nature of the series: Ovalbumin-specific proliferative recall response of splenic lymphocytes after intrahepatic immunization. It is filed as in vivo, BALB/c mice. To be noted: intrahepatic (portal vein) ovalbumin immunization; boosted day 7 with ovalbumin/CFA; splenic lymphocytes 14 days after boost; FIG. 1. An excerpt:
Four groups of BALB/c mice (The Jackson Laboratory, Bar Harbor, ME) of 6-8 weeks of age consisted of Group 1 intraperitoneal administration of ovalbumin, Group 2 intrahepatic administration of ovalbumin, Group 3 intrahepatic administration of ovalbumin together with lipiodol, and Group 4 intrahepatic administration of ovalbumin together with lipiodol and Poly (I:C).
Mice in Group 1(5 mice per group) where administered one hundred micrograms of ovalbumin (grade V; Sigma Aldrich) dissolved in 0.1 mL of 0.9% saline solution intraperitoneally. The following procedures were performed for mice receiving intrahepatic immunization: Mice were anesthetized with an intraperitoneal injection of ketamin at a concentration of 0.075 mg/g and medetomidine 0.005 mg/g (Sigma Aldrich, St Louis, Mo.). A midline abdominal incision was made, and the viscera were exposed. One hundred micrograms of ovalbumin was dissolved in 0.1 mL of 0.9% saline solution was injected into the portal vein with a 30-gauge needle for mice in Group 2. Mice in Group 3 received one hundred micrograms of ovalbumin dissolved in 0.1 mL of lipiodol (Guerbet, Roissy CdG Cedex, France). […] Cells were harvested onto glass fiber filters, and the radioactivity incorporated was quantitated using a Wallac Betaplate liquid scintillation counter. Results were expressed as the mean cpm of triplicate cultures±SEM. […]

The next series concerns IL-12 p70. Put plainly: IL-12 p70 production by LPS/TNF-activated bone marrow derived DC after siRNA transfection (ELISA). It is filed as cell-based, C57/BL6 mice. To be noted: day-7 bone marrow derived C57/BL6 DC; LPS/TNF activation day 8; supernatants day 10; FIG. 7. The protocol:
At Day 0, bone marrow cells were flushed from the femurs and tibias of C57/BL6 mice, washed and cultured in 6-well plates (Corning, N.Y.) at 4×10^6 cells/well in 4 ml of complete medium (RPMI 1640 supplemented with 2 mM L-glutamine, 100 U/ml penicillin, 100 μg of streptomycin, 50 μM 2-ME, and 10% FCS (all from Life Technologies, Ontario, Canada) supplemented with recombinant GM-CSF (10 ng/ml; PeproTech, Rocky Hill, N.J.) and recombinant mouse IL-4 (10 ng/ml; PeproTech). All cultures were incubated at 37° C. in 5% humidified CO2. Non-adherent cells were removed after 48 h of culture (Day 2) and fresh medium was added. After 7 days of culture, >90% of the cells expressed the characteristic DC-specific marker CD11c as determined by FACS. DC were washed and plated in 24-well plates at a concentration of 2×10^5 cells/well in 400 μl of serum-free RPMI 1640. Transfection with GenePorter, lipiodol, or naked siRNA was performed as described below on day 7 of culture. […]
(§1) The supernatants from recall response T cell cultures or MLR were harvested and assessed for DC cytokines (IL-12p70, IL-10) and T cell cytokines (IFN-, IL-4) by ELISA. Cytokine-specific ELISA (Endogen, Rockford, Ill.) was used for detecting cytokine concentrations in culture supernatants according to the manufacturer's instructions using a Benchmark Microplate Reader (Bio-Rad, Hercules, Calif.). […]

Series [1] relates to BALB/c T cells responding to C57/BL6 DC. Nature of the series: Mixed lymphocyte reaction, proliferation of responding allogeneic T cells. It is filed as cell-based, mice. To be noted: 3 day MLR; lipiodol-transfected C57/BL6 DC with naive BALB/c splenocytes; FIG. 9. The protocol:
C57/BL6 DC after transfection were irradiated (3,000 rad) and seeded in triplicate at various concentrations in a flat-bottom 96-well plate (Coming) for use as stimulator cells. Splenic T cells from BALB/c mice were isolated by gradient centrifugation over Ficoll-Paque (Amersham Pharmacia Biotech, Quebec) and T cell nylon wool column purification, and added as responders (5×10^5 cells/well). The mixed lymphocytes were cultured at 37° C. for 72 h in 200 μl of RPMI 1640 supplemented with 10% FCS, 100 U/ml of penicillin, and 100 μg/ml of streptomycin and pulsed with 1 μCi/well of ^3H-labelled thymidine (Amersham Pharmacia Biotech) for the last 16 h of culture. Cells were harvested onto glass fiber filters, and the radioactivity incorporated was quatitated using a Wallac Betaplate liquid scintillation counter (Beckman, Fullerton, Calif.). Results were expressed as the mean counts per min of triplicate cultures±SEM. In some experiments anti-IL-10 (JES5 2A5, Pharmingen) or isotype control antibody were added for the duration of the MLR at a concentration of 5 ug/ml.
Since the specific function of DC in vivo is stimulation of T cell responses, we sought to determine whether the siRNA/lipiodol mixture had effects on inhibition of mixed lymphocyte reaction (MLR).

The subject of series [2] is CD4 T cells from draining lymph nodes. Nature of the series: KLH proliferative recall response after immunization with siRNA/lipiodol, CFA and KLH. In kind it is in vivo, C57BL/6 mice. To be noted: lipiodol/CFA composition with KLH, identical protocol to Example 10; FIG. 15. The protocol: (§2) C57/BL6 mice were immunized intradermally at the interior side of both hind legs with 100 μl of KLH or ovalbumin (1 μg/μl) emulsified in CFA (Difco Laboratories, Detroit, Mich.) in the presence or absence of 10 nMol siRNA and 10% lipiodol. After 14 days mice were sacrificed and T cells extracted as described above.
(§3) Proliferative recall responses to KLH and ovalbumin in immunized mice were assessed by sacrificing C57/BL6 mice 14 days after immunization with antigen-loaded DC. T cells were purified from suspensions of lymph nodes using CD4+ T cell column (R&D Systems) after washing in PBS. Purified T cells were cultured in 96 well plates with irradiated syngeneic splenocytes in triplicate and mixed with serial dilutions of KLH or OVA at concentrations ranging from 0-10 ug/ml. Following a 72-h incubation, 1 μCi of [^3H]thymidine (Amersham) was added to each well for 16 h. Using an automated cell harvester, the cells were collected onto glass microfiber filter, and the radioactive labeling incorporation was measured by a Wallac Betaplate liquid scintillation counter.
Accordingly, we used the KLH recall response as an indicator. C57BL/6 mice were immunized with the IL-12 siRNA/lipiodol mixture combined with CFA and KLH. […]

In the next series the test system is IFN-γ. Nature of the series: KLH recall response supernatants, IFN-γ ELISA. In kind it is in vivo, C57BL/6 mice. To be noted: 14 days after immunization with siRNA/lipiodol, CFA and KLH, supernatants by ELISA, FIG. 13, FIG. 16. The protocol: as §2
as §3, with “Following a 72-h incubation, 1 μCi of [^3H]thymidine (Amersham) was added to each well for 16 h.” left out
as §1

A further series deals with IL-4. Put plainly: KLH recall response supernatants, IL-4 ELISA. In kind it is in vivo, C57BL/6 mice. To be noted: 14 days after immunization with siRNA/lipiodol, CFA and KLH, supernatants by ELISA, FIG. 14, FIG. 17. The protocol: as §2
as §3, with “Following a 72-h incubation, 1 μCi of [^3H]thymidine (Amersham) was added to each well for 16 h.” left out
as §1

[3] abbreviates: listed as Lipiodol-siRNA targeting IL-10.

With Poly (I:C), the “proliferative recall response to ovalbumin ([3H]thymidine)” value in the series on splenic lymphocytes is on record as “profound stimulation”.
As to “mismatched siRNA: mismatched (mixed) control sequence (AACTGCCAGATGGATGGTGAC) (SEQ ID NO: 3) (listed as DNA, chemistry not given here) [reference compound]”, the “inhibition of IL-12 production” value in the series with IL-12 p70 is recorded as “no inhibitory effect”. In addition, the “proliferation of responding T cells / allostimulatory ability of DC in MLR” value in series [1] is given as “not the mismatched (mixed) control inhibited proliferation”.
In the same order, the values of “siRNA specific for IL-12p35: siRNA specific for IL-12p35 (AACCUGCUGAAGACCACAGAU) (SEQ ID NO: 1), Dharmacon (listed as RNA, chemistry not given here)” are above 30% and “inhibited proliferation”.
For “siRNA targeting IL-10: siRNA specific for IL-10 (AATAAGCTCCAAGAGAAAGGC) (SEQ ID NO: 2), delivered in vivo in a lipiodol/CFA composition (lipiodol/CFA formulation, further chemistry not given here)”, the “recall proliferative response to KLH” value in series [2] is “increased”. The “IFN-γ production in KLH recall response” value is “enhanced” in the series on IFN-γ and “Increased” with IFN-γ (setting [3]). Also, the “IL-4 production in KLH recall response” value was “reduced” in the series on IL-4 and “Decreased” in the series with IL-4 (setting [3]).

The values are drawn from patent US20070269406A1, “Transcatheter tumor immunoembolization” (priority 2005, published 2007).
